Experimental data taken from patent US20220281779A1, “Fertiliser and/or Soil Improver Composition, Method of Preparation and Method of Use” (Veratin Pty Ltd, priority 2016, published 2022).

Tested on: Sceptre wheat
Experiment: Field wheat trial
Type: in vivo
Conditions: total N applied: nV-2 17 units, Flexi-N and Urea 59 units
Procedure: A fertiliser and/or soil improver composition (nV-2) is prepared using a method exemplified in Example III, with a sheep wool material (uncleaned and/or containing the fat layer) being deconstructed using a eutectic melt comprising urea:choline chloride at a ratio in the range of from about 7.5:1 to about 4:1, and with the temperature for the deconstruction of wool being in a range of approximately 145-165° C. (or more specifically approximately 145-160° C.). The composition (nV-2) was also prepared at a weight to volume ratio of the wool to eutectic melt in the range of from about 1 g:1 ml to about 1 g:25 ml.
The resultant fertiliser and/or soil improver composition (nV-2) comprises 35% (w/v) of total N (nitrogen) and has pH in the range of pH 5.5-6.5. For the field application, the composition nV-2 was mixed with water (as a carrier) in a ratio of approximately 52 L water to approximately 48 L of nV-2.
The field wheat trial was established as a randomised complete block of 5 treatments and 4 replicates in a single bank with each plot 12 meter long by 2 meter wide.
The effectiveness of the fertiliser and/or soil improver composition nV-2 according to the present invention on plant growth (wheat in this instance) and/or as an organic nitrogen nutrient source, is compared with a commercial inorganic fertiliser (Flexi-N, which is a commercially available fertiliser distributed by the Australian Company CSBP and contains three forms of N—urea, ammonium and nitrate, with a total N concentration of 42%), and with Urea alone (at 46% total N). […]
At 41 and 75 days after sowing, the NDVI was recorded for each plot using a hand-held green-seeker.
At 209 days after sowing, the trial was plot harvested for yield comparisons with grain samples collected from each plot and analysed for quality (protein, moisture, specific weight and screenings) according to industry standards.
All data collected was statistically analysed with the proprietary agricultural field research program ARM® using an Analysis of Variance at a confidence limit of 95%.

In the case of `NC(N)=O` [Urea], the Average crop yield (harvest 209 days after sowing) is reported as 7.848, the “Average crop yield/Unit of N” value is reported as 0.133 and the “Net crop yield/unit of N” value is reported as 0.009.
